Measurements from PubChem BioAssay AID330 (DTP/NCI, 2004).
Inconclusive results and toxic doses are left out.

Tested on: P388 leukemia ip, CD2F1 mice, survival T/C
Experiment: NCI In Vivo Anticancer Drug Screen. Data for tumor model P388 Leukemia (intraperitoneal) in CD2F1 (CDF1) mice
Conditions: endpoint: median survival time, higher = longer survival
Summary of the method: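 Mice carrying the transplanted tumor received test compound or vehicle. Survival was recorded in each group, and the value is the treated-group measurement divided by that of the vehicle-treated control group.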

[1] = dose: 50.0 mg/kg/injection, schedule: Q01DX005 (ip), vehicle: Klucel (hydroxypropylcellulose) (HPC)
[2] = dose: 100.0 mg/kg/injection, schedule: Q01DX005 (ip), vehicle: Klucel (hydroxypropylcellulose) (HPC)
[3] = dose: 200.0 mg/kg/injection, schedule: Q01DX005 (ip), vehicle: Klucel (hydroxypropylcellulose) (HPC)
[4] = dose: 50.0 mg/kg/injection, schedule: Q01DX005 (ip), vehicle: saline with Tween-80
[5] = dose: 100.0 mg/kg/injection, schedule: Q01DX005 (ip), vehicle: saline with Tween-80
[6] = dose: 200.0 mg/kg/injection, schedule: Q01DX005 (ip), vehicle: saline with Tween-80
[7] = dose: 200.0 mg/kg/injection, schedule: Q01DX009 (ip), vehicle: saline with Tween-80

O/N=C(\CNC/C(=N\O)NO)NO
T/C [1]: 90 % of control
T/C [2]: 97 % of control
T/C [3]: 93 % of control

C[N+](C)(Cc1ccccc1)c1nnn[n-]1
T/C (dose: 50.0 mg/kg/injection, schedule: Q01DX001 (ip), vehicle: Klucel (hydroxypropylcellulose) (HPC)): 97 % of control
T/C (dose: 100.0 mg/kg/injection, schedule: Q01DX001 (ip), vehicle: Klucel (hydroxypropylcellulose) (HPC)): 95 % of control
T/C (dose: 200.0 mg/kg/injection, schedule: Q01DX001 (ip), vehicle: Klucel (hydroxypropylcellulose) (HPC)): 105 % of control

CCOc1ccc(N=Nc2c(-c3ccccc3)nn(C(=S)S)c2-c2ccccc2)cc1
T/C [4]: 88 % of control
T/C [5]: 92 % of control
T/C [6]: 90 % of control

COc1cc2c(cc1O)NC(OC)C1CC(O)CN1C2=O (centres undefined)
T/C (dose: 1.0 mg/kg/injection, schedule: Q01DX005 (ip), vehicle: saline with Tween-80): 121 % of control
T/C (dose: 2.0 mg/kg/injection, schedule: Q01DX005 (ip), vehicle: saline with Tween-80): 119 % of control
T/C (dose: 16.0 mg/kg/injection, schedule: Q01DX005 (ip), vehicle: saline with Tween-80): 161 % of control

COc1cc(/C=C2\CN(C)C(=O)C2=O)ccc1O
T/C (dose: 50.0 mg/kg/injection, schedule: Q01DX009 (ip), vehicle: saline with Tween-80): 100 % of control
T/C (dose: 100.0 mg/kg/injection, schedule: Q01DX009 (ip), vehicle: saline with Tween-80): 108 % of control
T/C [7]: 109 % of control
T/C (dose: 400.0 mg/kg/injection, schedule: Q01DX009 (ip), vehicle: saline with Tween-80): 108 % of control

CC1CN=C(c2cccc(NC(=O)NCCCCNC(=O)Nc3cccc(C4=NCC(C)N4)c3)c2)N1 (centres undefined)
T/C (dose: 6.25 mg/kg/injection, schedule: Q01DX005 (ip), vehicle: saline with Tween-80): 100 % of control
T/C (dose: 12.5 mg/kg/injection, schedule: Q01DX005 (ip), vehicle: saline with Tween-80): 104 % of control

Nc1nc(C2CCCC2)c(Br)c(=O)[nH]1
T/C [1]: 101 % of control
T/C [2]: 103 % of control
T/C [3]: 105 % of control

COC1/C=C\OC2(C)Oc3c(C)c(O)c4c(O)c(c5c(c4c3C2=O)NC2(CCN(C)CC2)N=5)=NC(=O)/C(C)=C\C=C\C(C)C(O)C(C)C(O)C(C)C(OC(C)=O)C1C (centres undefined)
T/C (dose: 25.0 mg/kg/injection, schedule: Q01DX009 (ip), vehicle: Klucel (hydroxypropylcellulose) (HPC)): 100 % of control
T/C (dose: 50.0 mg/kg/injection, schedule: Q01DX009 (ip), vehicle: Klucel (hydroxypropylcellulose) (HPC)): 100 % of control
T/C (dose: 100.0 mg/kg/injection, schedule: Q01DX009 (ip), vehicle: Klucel (hydroxypropylcellulose) (HPC)): 102 % of control
T/C (dose: 200.0 mg/kg/injection, schedule: Q01DX009 (ip), vehicle: Klucel (hydroxypropylcellulose) (HPC)): 94 % of control

Cc1ccc(O)c(N=Nc2c(O)cc(S(=O)(=O)O)c3ccccc23)c1
T/C (dose: 50.0 mg/kg/injection, schedule: Q01DX009 (ip), vehicle: suspension in saline): 100 % of control
T/C (dose: 100.0 mg/kg/injection, schedule: Q01DX009 (ip), vehicle: suspension in saline): 95 % of control

ClCCN1c2ccc3ccccc3c2Sc2ccc3ccccc3c21
T/C [4]: 95 % of control
T/C [5]: 89 % of control

FC(F)(F)c1cccc(-n2nnnc2Oc2ccc(-c3ccccc3)cc2)c1
T/C [4]: 97 % of control
T/C [5]: 101 % of control
T/C [6]: 90 % of control

COC(=O)c1nnn(-c2cc(Cl)ccc2Cl)c1C(=O)c1ccc(Cl)c(Cl)c1
T/C (dose: 60.0 mg/kg/injection, schedule: Q01DX005 (ip), vehicle: saline with Tween-80): 99 % of control
T/C (dose: 120.0 mg/kg/injection, schedule: Q01DX005 (ip), vehicle: saline with Tween-80): 96 % of control
T/C (dose: 240.0 mg/kg/injection, schedule: Q01DX005 (ip), vehicle: saline with Tween-80): 87 % of control

O=C(NN=C(c1ccccc1)c1ccccc1)C(Cl)Cl
T/C (dose: 42.0 mg/kg/injection, schedule: Q01DX009 (ip), vehicle: saline with Tween-80): 99 % of control
T/C (dose: 84.0 mg/kg/injection, schedule: Q01DX009 (ip), vehicle: saline with Tween-80): 97 % of control
T/C (dose: 168.0 mg/kg/injection, schedule: Q01DX009 (ip), vehicle: saline with Tween-80): 97 % of control

N#CC(=C1C=CC(=NO)C=C1)c1ccccc1
T/C [7]: 115 % of control
